# pEC50: −log10 of the molar value.
# Assays:
# [1] = test system: dissociated hypothalamic cells (medial preoptic area); assay: Perforated patch recording of spontaneous miniature inhibitory postsynaptic currents (mIPSCs); format: cell-based, rat; settings: 30 and 100 nM AP, holding potential −11 mV, n = 5, p < 0.05
# Experimental: For the patch clamp studies, male Sprague-Dawley rats (n = 5, weight < 130 g) were housed at two or four rats per cage at 22 °C and with artificial daylight. Rats had free access to water and standard food. The regional ethics committee for animal research approved the experimental protocols. All procedures including animals were conducted in accordance with the ethical guidelines set by the European Union Directive 2010/63/EU for animal experiments.
# Electrophysiological experiments: The methods used for electrophysiological recording and cell preparation have been described in detail elsewhere. A summary of the procedures is given below. […]
# Protocol and analysis: A standard protocol was used for the experiments. Firstly, the current was recorded in the control solution (EC solution) for 30–60 s, followed by a 60–300 s test period with or without AP. The spontaneous miniature inhibitory postsynaptic currents (mIPSCs) were detected by visual inspection of current changes. […] The time-course and amplitude of the currents were measured semi-manually by using cursors and were fitted to an exponential decay curve by the curve-fitting routine of the pCLAMP software (Axon Instruments, Foster City, CA, USA). […] All the mIPSC values from the treatment period of the recorded cell (n = 6–11 events) were pooled and the mean was subjected to statistical analysis. […]
# [2] = i.v. AP; cited from earlier work
# [3] = target: T1, human α5β3γ2L GABAA receptors expressed in HEK-293 cells (Homo sapiens, UniProt P28472+P31644); assay: Whole-cell patch clamp of GABA/THDOC-evoked currents, extra-synaptic protocol (Dynaflow); format: cell-based
# T1 construct: The coding regions of the human GABAA receptor subunits were then amplified by PCR; expressed in transfected cells; host or cells: HEK-293 (permanently transfected, pcDNA3.1 vectors, CMV promoter)
# Text: Wild-type HEK-293 cells (passage 4, originating from Pasteur Institute, Paris, France) were permanently transfected with vectors including the human CMV promoter for the constitutive expression of the human α5, β3, and γ2L GABAA receptor subunits (α5β3γ2L) or the human α1, β2, and γ2L GABAA receptor subunits (α1β2γ2L). The production of the plasmids used in the sub-cloning of the different subunits is published in Rahman et al..
# The electrophysiological recordings from HEK-293 cells were performed with the whole-cell voltage clamp technique, at room temperature (21–23 °C). After compensation for liquid junction potential, a steady holding potential of −17 mV was used in all experiments. Patch pipettes were pulled from borosilicate glass (Bergman Labora AB, Danderyd, Sweden) and polished to a resistance of 2–5 MΩ when filled with intracellular solution and immersed in a bath (extracellular) solution (for solutions, see below). The pipette tips were filled by immersion in standard intracellular solution and subsequent back-filling with intracellular solution. The recordings were made using an Axopatch 200B amplifier and a Digidata 1322A (Axon Instruments, Foster City, CA, USA) controlled via a Pentium processor-based personal computer. Data were acquired using the pCLAMP software sampled at 10 kHz, filtered at 2–10 kHz, and analyzed with Clampfit (versions 9.0, both from Axon Instruments, Foster City, CA, USA). A series resistance between the pipette and cell membrane not higher than 20 MΩ was accepted. No series resistance compensation was used. The stability of series resistance was monitored repeatedly from the time course of capacitative transients during the experiments. The measured liquid junction potential between extracellular and intracellular solutions was subtracted from all data presented, as previously described. All experiments were performed at room temperature (21–23 °C).
# In all electrophysiological experiments, tetrahydro-deoxycorticosterone (THDOC) was used as a positive GABAA receptor steroid modulator (PAM) to mimic the effect of AP on central GABAA channels. […] THDOC (Sigma Chemical Co., St. Louis, MO, USA) and GR3027 (3α-ethynyl, 3β-hydroxyl, 5α-androstan-17-oxime, golexanolone, Umecrine Cognition AB, Stockholm, Sweden) were dissolved in dimethyl sulfoxide (DMSO) using ultrasound, for the preparation of solutions containing a final DMSO concentration of 0.1%. GR3027 was discovered within a series of molecules developed and patented by T. Bäckström and G. Ragagnin, (patent WO 2008/063128). All solutions were complemented with DMSO to achieve the same final concentration as in the steroid-containing test solution. GABA (Sigma Chemical Co., St. Louis, MO, USA) was first prepared as a stock solution (dissolved in EC with ultrasonic treatment) to the desired concentrations, with the corresponding final concentrations of test solutions (30 µM and 0.3 µM; see protocols below). GABA was added to the experimental solution without a change in osmolarity.
# The experimental protocols were designed to mimic the physiological conditions of the tonic (extra-synaptic) and phasic (synaptic) activation of GABAA receptors observed in central neurons, depending on the subunit compositions, respectively. GABA-evoked currents in HEK-293 cells expressing extra-synaptic (α5β3γ2L) or synaptic (α1β2γ2L) types of GABAA receptors were studied using the conventional whole-cell patch clamp technique. To mimic the physiological GABA exposure, the HEK-293 cells expressing α1β2γ2L GABAA receptors were exposed to short applications (40 ms) of 30 µM GABA, whereas HEK-293 cells expressing α5β3γ2L GABAA receptors were exposed to prolonged applications (6 s) of 0.3 µM GABA, either in the absence or presence of THDOC and/or GR3027.
# T1 sequence (P31644 32-462): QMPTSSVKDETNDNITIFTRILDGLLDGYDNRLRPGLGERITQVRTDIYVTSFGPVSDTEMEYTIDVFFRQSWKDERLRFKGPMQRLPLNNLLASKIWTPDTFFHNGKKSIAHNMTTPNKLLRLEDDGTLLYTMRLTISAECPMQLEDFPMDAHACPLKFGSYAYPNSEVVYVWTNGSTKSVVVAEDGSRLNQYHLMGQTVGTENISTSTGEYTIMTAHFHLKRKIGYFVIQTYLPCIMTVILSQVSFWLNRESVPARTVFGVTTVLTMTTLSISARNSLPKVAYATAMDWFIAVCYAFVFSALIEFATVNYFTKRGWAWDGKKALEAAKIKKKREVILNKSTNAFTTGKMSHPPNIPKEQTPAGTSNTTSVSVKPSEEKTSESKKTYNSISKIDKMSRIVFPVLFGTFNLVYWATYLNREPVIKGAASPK
# T1 sequence (P28472 26-473 isoform P28472-2 limits assumed): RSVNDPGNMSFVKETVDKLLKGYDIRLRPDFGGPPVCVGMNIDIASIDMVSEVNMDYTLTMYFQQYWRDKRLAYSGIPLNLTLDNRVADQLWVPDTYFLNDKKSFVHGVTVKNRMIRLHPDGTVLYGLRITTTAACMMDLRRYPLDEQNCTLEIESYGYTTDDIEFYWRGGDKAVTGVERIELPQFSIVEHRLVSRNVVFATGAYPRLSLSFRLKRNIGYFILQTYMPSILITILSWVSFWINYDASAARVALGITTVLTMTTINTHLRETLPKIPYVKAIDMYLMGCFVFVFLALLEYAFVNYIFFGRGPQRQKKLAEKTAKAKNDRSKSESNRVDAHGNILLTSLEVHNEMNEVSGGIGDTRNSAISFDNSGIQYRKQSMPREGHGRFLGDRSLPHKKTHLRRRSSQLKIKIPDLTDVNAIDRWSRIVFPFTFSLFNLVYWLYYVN
# T1 sequence (P18507 40-475 partner): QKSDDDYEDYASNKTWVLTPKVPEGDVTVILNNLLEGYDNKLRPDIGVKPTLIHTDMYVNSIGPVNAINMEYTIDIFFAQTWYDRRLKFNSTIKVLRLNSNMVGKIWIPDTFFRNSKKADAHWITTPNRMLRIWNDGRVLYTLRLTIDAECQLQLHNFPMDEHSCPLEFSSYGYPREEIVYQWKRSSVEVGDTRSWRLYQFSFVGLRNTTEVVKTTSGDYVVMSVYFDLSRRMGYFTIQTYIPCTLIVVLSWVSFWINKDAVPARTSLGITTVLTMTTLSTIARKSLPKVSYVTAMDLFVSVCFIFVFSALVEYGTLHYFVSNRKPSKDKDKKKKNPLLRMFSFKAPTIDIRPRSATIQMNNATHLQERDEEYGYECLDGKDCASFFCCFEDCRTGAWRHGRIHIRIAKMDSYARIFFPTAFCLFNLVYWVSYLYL
SMILES,AUC of spontaneous miniature inhibitory postsynaptic currents vs vehicle [1],Concentration in brain tissue after i.v. injections giving acute memory and learning disturbances [2] [nM],"pEC50 ([3]; EC50 of THDOC effect (outward shift in baseline holding current, direct activation), THDOC 30-300 nM, 0.3 µM GABA 6 s protocol, holding potential −17 mV)","THDOC Emax, % change in peak amplitude at 0.3 µM GABA ([3]; THDOC 0.01-1 µM + 0.3 µM GABA + 1 µM GR3027) [%]","THDOC Emax, % change in peak amplitude at 0.3 µM GABA ([3]; THDOC 0.01-1 µM + 0.3 µM GABA + 3 µM GR3027) [%]","THDOC Emax, % change in peak amplitude at 0.3 µM GABA ([3]; THDOC 0.01-1 µM + 0.3 µM GABA, no GR3027) [%]","Emax of THDOC effect (outward shift in baseline holding current, direct activation) ([3]; THDOC 30-300 nM, 0.3 µM GABA 6 s protocol) [%]","pEC50 ([3]; THDOC EC50, enhancement of GABA-evoked peak amplitude, THDOC 0.01-1 µM + 0.3 µM GABA + 1 µM GR3027)","pEC50 ([3]; THDOC EC50, enhancement of GABA-evoked peak amplitude, THDOC 0.01-1 µM + 0.3 µM GABA + 3 µM GR3027)","pEC50 ([3]; THDOC EC50, enhancement of GABA-evoked peak amplitude, THDOC 0.01-1 µM + 0.3 µM GABA, no GR3027)"
"CC(=O)[C@H]1CC[C@H]2[C@@H]3CC[C@H]4C[C@H](O)CC[C@]4(C)[C@H]3CC[C@]12C [AP, 3α-OH-5α-pregnan-20-one]",significantly higher,1000 to 2000,–,–,–,–,–,–,–,–
"C[C@]12CC[C@@H](O)C[C@@H]1CC[C@@H]1[C@@H]2CC[C@]2(C)[C@@H](C(=O)CO)CC[C@@H]12 [THDOC, 3α,21-dihydroxy-5α-pregnan-20-one, reference compound]",–,–,7.49,489,482,687,145,6.66,6.46,6.72

# Reference: publication PMC10604444, “Extra-Synaptic GABAA Receptor Potentiation and Neurosteroid-Induced Learning Deficits Are Inhibited by GR3027, a GABAA Modulating Steroid Antagonist” (Biomolecules, 2023)
